Source: publication PMC11124362, “Metabolism, Disposition, Excretion, and Potential Transporter Inhibition of 7–16, an Improving 5-HT2A Receptor Antagonist and Inverse Agonist for Parkinson’s Disease” (Molecules, 2024)

Columns and labels:
[1] = system: CYP1A2; assay: Metabolic phenotype by rhCYP isozymes, CYP1A2; type: in vitro ADME, human; conditions: 7–16 1 µM
Method: Based on the result of metabolite identification, two metabolites were selected as targets for metabolic phenotyping analysis. Seven CYP isozymes (CYP1A2, CYP2B6, CYP2C8, CYP2C9, CYP2C19, CYP2D6, and CYP3A4) were investigated using the rhCYP isozymes method. In brief, 7–16 (1 µΜ) was incubated with each rhCYP isozyme ([…]) in 100 mM sodium phosphate buffer (pH 7.4) containing 3 mM magnesium chloride. After 10 min of preincubation at 37 °C, the reactions were initiated by adding NADPH (1 mM) and then incubated at 37 °C in a shaking water bath for 0, 5, 15, and 30 min. The specific substrates of each rhCYP isozyme were incubated as the above method to confirm the activity of the incubation system. The samples were prepared in triplicates. The reactions were terminated by adding three times the volume of ice-cold acetonitrile (600 µL) and stored at −20 °C until analysis. After pre-treatment, the samples were determined by the LC–MS/MS (Shimadzu Exion-Triple Quad 4500) method. The relative contribution rate of each isozyme to the metabolism of 7–16 was evaluated in HLMs using the following formula: Contributionx% = Vx × Abundancex (pmol/mg protein)/Σ(Vi × Abundancei). Vx (µL/min/pmol) is the production rate of metabolites for each rhCYP isozyme.

[2] = biological target: T1, OAT1 (Homo sapiens, UniProt Q4U2R8); assay: OAT1 inhibitor assay in HEK293 cells; type: in vitro ADME; conditions: substrate p-Aminohippurate, read-out: Inhibition IC50, OAT1
T1 construct: host or cells: HEK293
T1 sequence (Q4U2R8 1-563): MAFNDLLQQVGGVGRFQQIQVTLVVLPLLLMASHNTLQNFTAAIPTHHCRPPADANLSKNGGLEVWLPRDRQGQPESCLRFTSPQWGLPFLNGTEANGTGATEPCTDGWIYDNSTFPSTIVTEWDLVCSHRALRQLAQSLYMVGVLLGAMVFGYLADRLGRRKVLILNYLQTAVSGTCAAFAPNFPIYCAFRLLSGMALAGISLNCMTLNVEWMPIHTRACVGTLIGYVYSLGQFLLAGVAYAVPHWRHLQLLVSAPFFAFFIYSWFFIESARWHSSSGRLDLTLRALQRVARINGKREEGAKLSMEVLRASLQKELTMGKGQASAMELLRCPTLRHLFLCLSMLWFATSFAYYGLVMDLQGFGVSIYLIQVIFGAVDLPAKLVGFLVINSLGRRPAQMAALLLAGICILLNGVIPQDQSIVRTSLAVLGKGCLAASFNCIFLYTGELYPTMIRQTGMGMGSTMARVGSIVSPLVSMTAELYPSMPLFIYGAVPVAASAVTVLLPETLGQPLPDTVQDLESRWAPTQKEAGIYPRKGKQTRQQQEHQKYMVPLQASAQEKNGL

[3] = system: CYP2C19; parameters: method as in PMID 35279606; conditions: previous study; read-out: CYP2C19 inhibition IC50; cited from earlier work
[4] = system: CYP2C9; parameters: method as in PMID 35279606; conditions: previous study; read-out: CYP2C9 inhibition IC50; cited from earlier work
[5] = biological target: T2, OCT2 (Homo sapiens, UniProt O15244)
T2 sequence (O15244 1-555): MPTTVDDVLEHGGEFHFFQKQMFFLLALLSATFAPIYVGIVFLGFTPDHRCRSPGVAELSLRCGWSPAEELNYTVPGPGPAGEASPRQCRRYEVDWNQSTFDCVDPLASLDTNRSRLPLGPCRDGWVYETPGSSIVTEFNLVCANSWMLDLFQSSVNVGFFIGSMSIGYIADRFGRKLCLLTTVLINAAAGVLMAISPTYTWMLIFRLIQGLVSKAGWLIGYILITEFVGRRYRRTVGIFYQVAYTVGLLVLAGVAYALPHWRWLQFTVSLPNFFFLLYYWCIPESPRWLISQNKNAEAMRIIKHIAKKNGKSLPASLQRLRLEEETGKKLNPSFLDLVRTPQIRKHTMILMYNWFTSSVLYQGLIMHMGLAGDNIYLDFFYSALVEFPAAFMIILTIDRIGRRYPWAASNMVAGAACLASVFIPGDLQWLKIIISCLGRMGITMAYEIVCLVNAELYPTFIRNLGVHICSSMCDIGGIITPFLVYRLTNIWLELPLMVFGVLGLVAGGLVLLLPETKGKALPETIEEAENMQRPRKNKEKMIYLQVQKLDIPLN

[6] = system: CYP2D6; parameters: method as in PMID 35279606; conditions: previous study; read-out: CYP2D6 inhibition IC50; cited from earlier work
[7] = biological target: T3, OATP1B3 (Homo sapiens, UniProt Q9NPD5)
T3 sequence (Q9NPD5 1-702): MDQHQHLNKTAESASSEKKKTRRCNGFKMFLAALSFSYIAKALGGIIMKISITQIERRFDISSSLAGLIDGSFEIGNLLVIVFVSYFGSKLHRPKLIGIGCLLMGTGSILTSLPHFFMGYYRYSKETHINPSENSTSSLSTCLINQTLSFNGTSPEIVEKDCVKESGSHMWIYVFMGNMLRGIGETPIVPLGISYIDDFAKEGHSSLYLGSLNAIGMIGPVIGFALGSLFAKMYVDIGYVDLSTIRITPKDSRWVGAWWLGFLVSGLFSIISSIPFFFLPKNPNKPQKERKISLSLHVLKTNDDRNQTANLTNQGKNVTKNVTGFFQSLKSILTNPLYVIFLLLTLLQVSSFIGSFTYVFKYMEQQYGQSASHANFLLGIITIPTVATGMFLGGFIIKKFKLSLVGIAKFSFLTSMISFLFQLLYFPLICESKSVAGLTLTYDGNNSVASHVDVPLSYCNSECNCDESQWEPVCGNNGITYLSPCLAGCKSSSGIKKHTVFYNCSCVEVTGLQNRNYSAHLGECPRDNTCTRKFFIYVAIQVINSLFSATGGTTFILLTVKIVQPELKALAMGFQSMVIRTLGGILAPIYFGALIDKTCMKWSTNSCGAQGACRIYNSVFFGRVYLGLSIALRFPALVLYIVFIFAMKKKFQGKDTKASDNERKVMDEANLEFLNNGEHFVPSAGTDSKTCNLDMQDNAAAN

[8] = system: 5-HT2A receptors; parameters: method as in PMID 35279606; conditions: head twitches test in rats; cited from earlier work

Question: Which “relative contribution of CYP1A2 to metabolism” value [1] does the source give for `CN1CCC(N(Cc2ccc(F)cn2)C(=O)NCc2ccc(OCC(F)(F)F)cc2)CC1` [7–16, 3-(4-(2,2,2-trifluoroethoxy)benzyl)-1-((5-fluoropyridin-2-yl)methyl)-1-(1-methylpiperidin-4-yl) urea] here?
Answer: little or no contribution

Question: And the IC50 [2]?
Answer: > 100 µM

Question: And the IC50 [3]?
Answer: > 62.9 µM

Question: What about the IC50 [4] of the same molecule?
Answer: > 62.9 µM

Question: What about the IC50 [5] of the same molecule?
Answer: 72.5 µM

Question: What about the IC50 [6] of the same molecule?
Answer: > 62.9 µM

Question: And the IC50 [7]?
Answer: 89.5 µM

Question: What about the “potency for blocking 5-HT2A receptors relative to pimavanserin” value [8] of the same molecule?
Answer: at least four times more potent than pimavanserin
